Laboratory results as given in patent publication US20160046618A1, “Cyclopropyl Fused Thiazin-2-Amine Compounds as Beta-Secretase Inhibitors and Methods of Use” (AMGEN INC., priority 2014, published 2016).

Tests used:
human recombinant BACE1 = human recombinant BACE1 (Homo sapiens (Human), UniProt P56817); test: In vitro enzymatic BACE1 FRET assay; type: biochemical; settings: read-out: IC50 IP (μM) BACE1 enzyme
Procedure, shortened: (§1)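 Fluorescence from cleavage of a quenched peptide spanning the BACE site (50 nM) was read at 488 nm excitation, 590 nm emission. Purified enzyme (Ni-NTA) and compound reacted for one hour before a Tris stop shifted pH to neutral.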

human recombinant BACE2 = human recombinant BACE2 (Homo sapiens (Human), UniProt Q9Y5Z0); test: In vitro enzymatic BACE2 FRET assay; type: biochemical; settings: read-out: IC50 IP (μM) BACE2 enzyme
Chain of human recombinant BACE2 (Q9Y5Z0 63-518): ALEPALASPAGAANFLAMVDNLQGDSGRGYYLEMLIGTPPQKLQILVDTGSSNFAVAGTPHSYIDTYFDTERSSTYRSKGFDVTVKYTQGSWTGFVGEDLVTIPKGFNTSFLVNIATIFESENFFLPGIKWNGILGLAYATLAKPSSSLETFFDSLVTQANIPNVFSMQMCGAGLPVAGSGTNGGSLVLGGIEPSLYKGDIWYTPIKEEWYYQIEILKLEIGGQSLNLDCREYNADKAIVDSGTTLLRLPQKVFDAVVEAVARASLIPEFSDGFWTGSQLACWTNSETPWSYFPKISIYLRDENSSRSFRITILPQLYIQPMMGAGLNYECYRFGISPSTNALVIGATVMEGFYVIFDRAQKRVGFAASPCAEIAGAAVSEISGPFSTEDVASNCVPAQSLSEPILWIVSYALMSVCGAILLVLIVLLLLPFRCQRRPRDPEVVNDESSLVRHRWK
Procedure, shortened: as §1

[1] = system: Aβ40 in conditioned medium of cells stably expressing Amyloid Precursor Protein (APP); test: In vitro BACE-1 cell-based assay (Aβ40 sandwich ELISA); settings: read-out: IC50 IP (μM) BACE1 cell
Procedure, shortened: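 Aβ40 in supernatants measured by time-resolved fluorescence sandwich ELISA, with pAb40 as capture and biotin-6E10 as detector antibody, each incubated at 4 °C.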

Recombinant Cat D = Recombinant Cat D (Homo sapiens (Human), UniProt P07339); test: In vitro enzymatic Cathepsin D (Cat D) FRET assay; type: biochemical; settings: read-out: IC50 IP (μM) CatD
Chain of Recombinant Cat D (P07339 65-412): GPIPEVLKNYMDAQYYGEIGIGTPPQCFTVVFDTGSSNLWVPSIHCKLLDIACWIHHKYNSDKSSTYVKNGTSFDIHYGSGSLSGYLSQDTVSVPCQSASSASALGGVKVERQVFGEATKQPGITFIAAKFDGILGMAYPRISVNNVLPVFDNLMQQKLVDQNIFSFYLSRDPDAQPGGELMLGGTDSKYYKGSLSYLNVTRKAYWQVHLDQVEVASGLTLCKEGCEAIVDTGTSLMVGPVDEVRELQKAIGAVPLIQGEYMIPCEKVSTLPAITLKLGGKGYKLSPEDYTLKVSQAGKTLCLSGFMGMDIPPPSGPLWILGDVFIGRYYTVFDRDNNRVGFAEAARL
Procedure, shortened: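 Assay pH is 3.5 (0.05 M citrate, 5 mM CHAPS, 10% DMSO final) with Cat D from CHO cells. A 20 nM quenched peptide substrate is cleaved over one hour; the reaction is ended with Tris and read by fluorescence (ex 500, em 580 nm).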

Chain of human recombinant BACE1 (P56817 46-501): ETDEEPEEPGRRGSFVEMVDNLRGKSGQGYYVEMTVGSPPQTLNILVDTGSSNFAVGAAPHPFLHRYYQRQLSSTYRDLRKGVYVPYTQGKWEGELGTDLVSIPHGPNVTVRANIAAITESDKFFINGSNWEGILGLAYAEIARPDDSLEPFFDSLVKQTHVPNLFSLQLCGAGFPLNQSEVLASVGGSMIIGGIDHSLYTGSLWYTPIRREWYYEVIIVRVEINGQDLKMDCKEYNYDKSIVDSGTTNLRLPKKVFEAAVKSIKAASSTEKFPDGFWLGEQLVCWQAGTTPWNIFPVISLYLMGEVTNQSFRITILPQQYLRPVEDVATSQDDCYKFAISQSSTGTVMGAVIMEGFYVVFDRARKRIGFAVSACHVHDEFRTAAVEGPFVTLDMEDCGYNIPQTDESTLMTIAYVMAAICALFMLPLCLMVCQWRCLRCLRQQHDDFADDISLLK

Structure (SMILES) | IC50 (human recombinant BACE1) [µM] | IC50 (human recombinant BACE2) [µM] | IC50 [1] [µM] | IC50 (Recombinant Cat D) [µM]
C[C@]1(c2cc(Nc3nccc4nc(OCCCF)cnc34)cc(F)c2F)N=C(N)S[C@@]2(C(F)F)C[C@@H]12 [Example 871, N-(3-((1S,5S,6S)-3-amino-1-(difluoromethyl)-5-methyl-2-thia-4-azabicyclo[4.1.0]hept-3-en-5-yl)-4,5-difluorophenyl)-2-(3-fluoropropoxy)pyrido[3,4-b]pyrazin-5-amine] | 0.0183 | 0.517 | 1.17 | 352
CC(F)(F)COc1cnc2c(Nc3cc(F)c(F)c([C@@]4(C)N=C(N)S[C@@]5(C(F)F)C[C@@H]45)c3)nccc2n1 [Example 872, N-(3-((1S,5S,6S)-3-amino-1-(difluoromethyl)-5-methyl-2-thia-4-azabicyclo[4.1.0]hept-3-en-5-yl)-4,5-difluorophenyl)-2-(2,2-difluoropropoxy)pyrido[3,4-b]pyrazin-5-amine] | 0.0193 | 0.441 | 2.66 | 239
C[C@]1(c2cc(Nc3nccc4nc(OCc5ncccc5F)cnc34)cc(F)c2F)N=C(N)S[C@@]2(C(F)F)C[C@@H]12 [Example 873, N-(3-((1S,5S,6S)-3-amino-1-(difluoromethyl)-5-methyl-2-thia-4-azabicyclo[4.1.0]hept-3-en-5-yl)-4,5-difluorophenyl)-2-((3-fluoro-2-pyridinyl)methoxy)pyrido[3,4-b]pyrazin-5-amine] | 0.00175 | 0.0358 | 0.287 | 95.1
Cc1ccnc(COc2cnc3c(Nc4cc(F)c(F)c([C@@]5(C)N=C(N)S[C@@]6(C(F)F)C[C@@H]56)c4)nccc3n2)n1 [Example 874, N-(3-((1S,5S,6S)-3-amino-1-(difluoromethyl)-5-methyl-2-thia-4-azabicyclo[4.1.0]hept-3-en-5-yl)-4,5-difluorophenyl)-2-((4-methyl-2-pyrimidinyl)methoxy)pyrido[3,4-b]pyrazin-5-amine] | 0.00361 | 0.0755 | 0.0245 | 956
C[C@]1(c2cc(Nc3nccc4nc(OCc5cscn5)cnc34)cc(F)c2F)N=C(N)S[C@@]2(C(F)F)C[C@@H]12 [Example 875, N-(3-((1S,5S,6S)-3-amino-1-(difluoromethyl)-5-methyl-2-thia-4-azabicyclo[4.1.0]hept-3-en-5-yl)-4,5-difluorophenyl)-2-(1,3-thiazol-4-ylmethoxy)pyrido[3,4-b]pyrazin-5-amine] | 0.00296 | 0.0352 | 0.0272 | 295
CC(C)Oc1cnc2c(Nc3cc(F)c(F)c([C@@]4(C)N=C(N)S[C@@]5(C(F)F)C[C@@H]45)c3)nccc2n1 [Example 876, N-(3-((1S,5S,6S)-3-amino-1-(difluoromethyl)-5-methyl-2-thia-4-azabicyclo[4.1.0]hept-3-en-5-yl)-4,5-difluorophenyl)-2-(1-methylethoxy)pyrido[3,4-b]pyrazin-5-amine] | 0.0801 | 0.912 | 0.587 | 223
Cc1nnc(COc2cnc3c(Nc4cc(F)c(F)c([C@@]5(C)N=C(N)S[C@@]6(C(F)F)C[C@@H]56)c4)nccc3n2)o1 [Example 877, N-(3-((1S,5S,6S)-3-amino-1-(difluoromethyl)-5-methyl-2-thia-4-azabicyclo[4.1.0]hept-3-en-5-yl)-4,5-difluorophenyl)-2-((5-methyl-1,3,4-oxadiazol-2-yl)methoxy)pyrido[3,4-b]pyrazin-5-amine] | 0.011 | 0.338 | 0.0294 | 343
CN(C)C(=O)COc1cnc2c(Nc3cc(F)c(F)c([C@@]4(C)N=C(N)S[C@@]5(C(F)F)C[C@@H]45)c3)nccc2n1 [Example 878, 2-((5-((3-((1S,5S,6S)-3-amino-1-(difluoromethyl)-5-methyl-2-thia-4-azabicyclo[4.1.0]hept-3-en-5-yl)-4,5-difluorophenyl)amino)pyrido[3,4-b]pyrazin-2-yl)oxy)-N,N-dimethylacetamide] | 0.231 | 0.353 | 1.07 | 171
C#C[C@H](C)Oc1cnc2c(Nc3ccc(F)c([C@@]4(CF)N=C(N)S[C@@]5(CF)C[C@H]54)c3)nccc2n1 [Example 879, N-(3-((1S,5S,6S)-3-amino-1,5-bis(fluoromethyl)-2-thia-4-azabicyclo[4.1.0]hept-3-en-5-yl)-4-fluorophenyl)-2-(((1S)-1-methyl-2-propyn-1-yl)oxy)pyrido[3,4-b]pyrazin-5-amine] | 0.00107 | 0.282 | 0.0179 | 2690
Cc1noc(COc2cnc3c(Nc4ccc(F)c([C@@]5(CF)N=C(N)S[C@@]6(CF)C[C@H]65)c4)nccc3n2)n1 [Example 880, N-(3-((1S,5S,6S)-3-amino-1,5-bis(fluoromethyl)-2-thia-4-azabicyclo[4.1.0]hept-3-en-5-yl)-4-fluorophenyl)-2-((3-methyl-1,2,4-oxadiazol-5-yl)methoxy)pyrido[3,4-b]pyrazin-5-amine] | 0.00452 | 0.27 | 0.0193 | 1110
COC[C@]12C[C@H]1[C@@](C)(c1cc(Nc3nccc4nc(OCc5ncccn5)cnc34)cc(F)c1F)N=C(N)S2 [Example 881, N-(3-((1S,5S,6S)-3-amino-1-(methoxymethyl)-5-methyl-2-thia-4-azabicyclo[4.1.0]hept-3-en-5-yl)-4,5-difluorophenyl)-2-(2-pyrimidinylmethoxy)pyrido[3,4-b]pyrazin-5-amine] | 0.00936 | 0.14 | 0.00819 | 349
COC[C@]12C[C@H]1[C@@](C)(c1cc(Nc3nccc4nc(OCc5nc(C)no5)cnc34)cc(F)c1F)N=C(N)S2 [Example 882, N-(3-((1S,5S,6S)-3-amino-1-(methoxymethyl)-5-methyl-2-thia-4-azabicyclo[4.1.0]hept-3-en-5-yl)-4,5-difluorophenyl)-2-((3-methyl-1,2,4-oxadiazol-5-yl)methoxy)pyrido[3,4-b]pyrazin-5-amine] | 0.00778 | 0.381 | 0.0204 | 911
Cc1nc(COc2cnc3c(Nc4cc(F)c(F)c([C@@]5(C)N=C(N)S[C@@]6(C(F)F)C[C@@H]56)c4)nccc3n2)no1 [Example 883, N-(3-((1S,5S,6S)-3-amino-1-(difluoromethyl)-5-methyl-2-thia-4-azabicyclo[4.1.0]hept-3-en-5-yl)-4,5-difluorophenyl)-2-((5-methyl-1,2,4-oxadiazol-3-yl)methoxy)pyrido[3,4-b]pyrazin-5-amine] | 0.000316 | 0.091 | 0.0133 | 363
C[C@]1(c2cc(Nc3nccc4nc(OCc5ncccn5)cnc34)cc(F)c2F)N=C(N)S[C@@]2(C(F)F)C[C@@H]12 [Example 884, N-(3-((1S,5S,6S)-3-amino-1-(difluoromethyl)-5-methyl-2-thia-4-azabicyclo[4.1.0]hept-3-en-5-yl)-4,5-difluorophenyl)-2-(2-pyrimidinylmethoxy)pyrido[3,4-b]pyrazin-5-amine] | 0.00427 | 0.13 | 0.0119 | > 400
COC[C@]12C[C@H]1[C@@](C)(c1cc(Nc3nccc4nc(OCc5noc(C)n5)cnc34)cc(F)c1F)N=C(N)S2 [Example 885, N-(3-((1S,5S,6S)-3-amino-1-(methoxymethyl)-5-methyl-2-thia-4-azabicyclo[4.1.0]hept-3-en-5-yl)-4,5-difluorophenyl)-2-((5-methyl-1,2,4-oxadiazol-3-yl)methoxy)pyrido[3,4-b]pyrazin-5-amine] | 0.00223 | 0.143 | 0.00823 | 592
Cc1nc(COc2cnc3c(Nc4cc(F)c(F)c([C@@]5(C)N=C(N)S[C@@]6(C(F)F)C[C@@H]56)c4)nccc3n2)c(C)o1 [Example 886, N-(3-((1S,5S,6S)-3-amino-1-(difluoromethyl)-5-methyl-2-thia-4-azabicyclo[4.1.0]hept-3-en-5-yl)-4,5-difluorophenyl)-2-((2,5-dimethyl-1,3-oxazol-4-yl)methoxy)pyrido[3,4-b]pyrazin-5-amine] | 0.0011 | 0.0278 | 0.0411 | 136
Cc1noc(COc2cnc3c(Nc4cc(F)c(F)c([C@@]5(C)N=C(N)S[C@@]6(C(F)F)C[C@@H]56)c4)nccc3n2)n1 [Example 887, N-(3-((1S,5S,6S)-3-amino-1-(difluoromethyl)-5-methyl-2-thia-4-azabicyclo[4.1.0]hept-3-en-5-yl)-4,5-difluorophenyl)-2-((3-methyl-1,2,4-oxadiazol-5-yl)methoxy)pyrido[3,4-b]pyrazin-5-amine] | 0.00295 | 0.317 | 0.0442 | > 400
Cc1cnc(COc2cnc3c(Nc4cc(F)c(F)c([C@@]5(C)N=C(N)S[C@@]6(C(F)F)C[C@@H]56)c4)nccc3n2)o1 [Example 888, N-(3-((1S,5S,6S)-3-amino-1-(difluoromethyl)-5-methyl-2-thia-4-azabicyclo[4.1.0]hept-3-en-5-yl)-4,5-difluorophenyl)-2-((5-methyl-1,3-oxazol-2-yl)methoxy)pyrido[3,4-b]pyrazin-5-amine] | 0.00209 | 0.0581 | 0.0218 | 71.9
